# The source made the active and inactive calls. The calls are words filed in the database; no cut-off is given here.
# Columns and labels:
# [1] = target: Ubiquitin carboxyl-terminal hydrolase 9X (Homo sapiens) (UniProt Q93008); assay: Inhibition of human USP9X (1551 to 1970 residues) expressed in Escherichia coli BL21 (DE3) using ubiquitin rhodamine 110 as substrate assessed as remaining enzyme activity at 10 to 50 uM by fluorometric assay; conditions: dose 10-50 µM
# [2] = target: T1, Ubiquitin carboxyl-terminal hydrolase 2 (Homo sapiens) (UniProt O75604); assay: Inhibition of human USP2 (251 to 605 residues) expressed in Escherichia coli BL21 (DE3) using ubiquitin rhodamine 110 as substrate assessed as remaining enzyme activity at 10 to 50 uM by fluorometric assay; conditions: dose 10-50 µM
# T1 sequence (whole entry): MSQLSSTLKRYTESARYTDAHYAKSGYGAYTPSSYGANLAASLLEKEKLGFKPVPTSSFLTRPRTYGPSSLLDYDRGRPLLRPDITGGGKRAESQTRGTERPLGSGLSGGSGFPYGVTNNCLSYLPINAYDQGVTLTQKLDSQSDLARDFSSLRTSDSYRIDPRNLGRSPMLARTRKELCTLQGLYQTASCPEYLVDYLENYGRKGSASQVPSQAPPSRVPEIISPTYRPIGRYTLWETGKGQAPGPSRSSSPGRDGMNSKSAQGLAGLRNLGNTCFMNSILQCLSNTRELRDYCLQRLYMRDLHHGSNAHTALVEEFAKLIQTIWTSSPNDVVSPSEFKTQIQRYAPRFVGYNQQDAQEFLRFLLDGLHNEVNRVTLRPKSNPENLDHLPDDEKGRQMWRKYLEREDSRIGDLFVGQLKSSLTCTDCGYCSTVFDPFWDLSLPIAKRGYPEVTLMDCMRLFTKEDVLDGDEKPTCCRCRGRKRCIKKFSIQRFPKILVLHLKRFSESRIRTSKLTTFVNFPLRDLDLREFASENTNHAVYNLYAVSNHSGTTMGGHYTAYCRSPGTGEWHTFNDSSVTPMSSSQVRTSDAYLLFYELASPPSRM
# MDA-MB-231 = assay: Antiproliferative activity against human MDA-MB-231 cells assessed as reduction in cell viability up to 30 uM incubated for 72 hrs by CellTiter-Glo luminescent assay; type: functional, cell-based
# Jurkat = assay: Antiproliferative activity against human Jurkat cells assessed as reduction in cell viability up to 30 uM incubated for 72 hrs by CellTiter-Glo luminescent assay; type: functional, cell-based
# [3] = target: T2, Ubiquitin carboxyl-terminal hydrolase 8 (Homo sapiens) (UniProt P40818); assay: Inhibition of human USP8 using ubiquitin rhodamine 110 as substrate at 10 to 50 uM by fluorometric assay; conditions: dose 10-50 µM
# T2 sequence (whole entry): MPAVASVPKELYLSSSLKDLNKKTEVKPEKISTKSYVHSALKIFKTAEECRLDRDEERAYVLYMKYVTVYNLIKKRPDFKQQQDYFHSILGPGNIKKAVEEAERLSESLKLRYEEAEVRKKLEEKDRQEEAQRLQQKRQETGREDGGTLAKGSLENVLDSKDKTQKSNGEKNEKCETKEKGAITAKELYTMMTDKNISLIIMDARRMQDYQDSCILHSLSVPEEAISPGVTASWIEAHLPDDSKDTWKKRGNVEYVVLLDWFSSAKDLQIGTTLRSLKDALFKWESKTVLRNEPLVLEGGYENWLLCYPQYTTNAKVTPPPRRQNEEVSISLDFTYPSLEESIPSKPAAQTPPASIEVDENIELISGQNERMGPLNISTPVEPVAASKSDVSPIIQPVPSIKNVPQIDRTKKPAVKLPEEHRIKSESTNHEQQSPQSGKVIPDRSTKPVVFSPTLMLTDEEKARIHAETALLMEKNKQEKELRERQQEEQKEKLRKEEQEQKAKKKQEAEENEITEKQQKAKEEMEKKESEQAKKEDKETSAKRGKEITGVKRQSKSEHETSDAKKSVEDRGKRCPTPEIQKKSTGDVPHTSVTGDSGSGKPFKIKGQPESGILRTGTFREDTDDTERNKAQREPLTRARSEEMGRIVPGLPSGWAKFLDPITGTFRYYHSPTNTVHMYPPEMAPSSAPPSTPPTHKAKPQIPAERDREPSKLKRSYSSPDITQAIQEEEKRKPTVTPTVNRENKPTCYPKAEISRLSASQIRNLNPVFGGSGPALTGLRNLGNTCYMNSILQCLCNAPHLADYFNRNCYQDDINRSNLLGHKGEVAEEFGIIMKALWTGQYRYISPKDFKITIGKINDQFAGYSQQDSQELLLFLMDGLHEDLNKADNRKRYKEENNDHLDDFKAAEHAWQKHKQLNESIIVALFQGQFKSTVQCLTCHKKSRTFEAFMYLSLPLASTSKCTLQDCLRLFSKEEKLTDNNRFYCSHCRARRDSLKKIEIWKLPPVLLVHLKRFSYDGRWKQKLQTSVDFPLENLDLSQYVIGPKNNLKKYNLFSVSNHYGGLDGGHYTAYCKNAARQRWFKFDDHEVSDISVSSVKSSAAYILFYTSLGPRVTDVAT
# [4] = target: Ubiquitin carboxyl-terminal hydrolase 7 (Homo sapiens) (UniProt Q93009); assay: Inhibition of human USP7 using ubiquitin rhodamine 110 as substrate at 10 to 50 uM by fluorometric assay; conditions: dose 10-50 µM
# Sequence of Ubiquitin carboxyl-terminal hydrolase 7 (Homo sapiens) (Q93009 whole entry, looked up): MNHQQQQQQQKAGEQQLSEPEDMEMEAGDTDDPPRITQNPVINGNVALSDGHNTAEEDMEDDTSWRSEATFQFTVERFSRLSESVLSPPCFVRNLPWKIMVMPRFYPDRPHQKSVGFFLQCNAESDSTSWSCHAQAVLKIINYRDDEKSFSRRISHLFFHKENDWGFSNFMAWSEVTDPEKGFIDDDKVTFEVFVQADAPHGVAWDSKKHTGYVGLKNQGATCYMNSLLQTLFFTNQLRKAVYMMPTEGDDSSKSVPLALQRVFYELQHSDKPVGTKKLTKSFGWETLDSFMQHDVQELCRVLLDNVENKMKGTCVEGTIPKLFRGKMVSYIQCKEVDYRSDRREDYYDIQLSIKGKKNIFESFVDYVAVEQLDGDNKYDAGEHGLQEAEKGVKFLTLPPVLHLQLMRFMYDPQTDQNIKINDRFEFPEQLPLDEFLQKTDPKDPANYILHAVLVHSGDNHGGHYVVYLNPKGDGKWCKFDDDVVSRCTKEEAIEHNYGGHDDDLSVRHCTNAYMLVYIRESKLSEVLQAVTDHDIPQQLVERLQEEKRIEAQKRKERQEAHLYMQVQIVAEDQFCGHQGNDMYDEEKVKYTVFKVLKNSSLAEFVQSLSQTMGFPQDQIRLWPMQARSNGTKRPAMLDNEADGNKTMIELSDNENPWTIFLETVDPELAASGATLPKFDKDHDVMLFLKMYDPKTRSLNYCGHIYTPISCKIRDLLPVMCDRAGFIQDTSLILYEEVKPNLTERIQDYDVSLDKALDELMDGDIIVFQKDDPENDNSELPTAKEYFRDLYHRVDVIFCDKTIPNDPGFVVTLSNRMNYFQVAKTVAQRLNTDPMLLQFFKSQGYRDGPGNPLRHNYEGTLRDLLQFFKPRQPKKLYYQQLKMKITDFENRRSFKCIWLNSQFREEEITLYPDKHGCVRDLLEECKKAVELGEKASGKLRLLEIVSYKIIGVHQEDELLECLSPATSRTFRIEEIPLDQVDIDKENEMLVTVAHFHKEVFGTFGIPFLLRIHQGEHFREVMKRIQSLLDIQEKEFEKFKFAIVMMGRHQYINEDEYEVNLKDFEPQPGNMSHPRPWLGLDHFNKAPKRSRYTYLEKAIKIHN
# Sequence of Ubiquitin carboxyl-terminal hydrolase 9X (Homo sapiens) (Q93008 whole entry, the tested form may be a part): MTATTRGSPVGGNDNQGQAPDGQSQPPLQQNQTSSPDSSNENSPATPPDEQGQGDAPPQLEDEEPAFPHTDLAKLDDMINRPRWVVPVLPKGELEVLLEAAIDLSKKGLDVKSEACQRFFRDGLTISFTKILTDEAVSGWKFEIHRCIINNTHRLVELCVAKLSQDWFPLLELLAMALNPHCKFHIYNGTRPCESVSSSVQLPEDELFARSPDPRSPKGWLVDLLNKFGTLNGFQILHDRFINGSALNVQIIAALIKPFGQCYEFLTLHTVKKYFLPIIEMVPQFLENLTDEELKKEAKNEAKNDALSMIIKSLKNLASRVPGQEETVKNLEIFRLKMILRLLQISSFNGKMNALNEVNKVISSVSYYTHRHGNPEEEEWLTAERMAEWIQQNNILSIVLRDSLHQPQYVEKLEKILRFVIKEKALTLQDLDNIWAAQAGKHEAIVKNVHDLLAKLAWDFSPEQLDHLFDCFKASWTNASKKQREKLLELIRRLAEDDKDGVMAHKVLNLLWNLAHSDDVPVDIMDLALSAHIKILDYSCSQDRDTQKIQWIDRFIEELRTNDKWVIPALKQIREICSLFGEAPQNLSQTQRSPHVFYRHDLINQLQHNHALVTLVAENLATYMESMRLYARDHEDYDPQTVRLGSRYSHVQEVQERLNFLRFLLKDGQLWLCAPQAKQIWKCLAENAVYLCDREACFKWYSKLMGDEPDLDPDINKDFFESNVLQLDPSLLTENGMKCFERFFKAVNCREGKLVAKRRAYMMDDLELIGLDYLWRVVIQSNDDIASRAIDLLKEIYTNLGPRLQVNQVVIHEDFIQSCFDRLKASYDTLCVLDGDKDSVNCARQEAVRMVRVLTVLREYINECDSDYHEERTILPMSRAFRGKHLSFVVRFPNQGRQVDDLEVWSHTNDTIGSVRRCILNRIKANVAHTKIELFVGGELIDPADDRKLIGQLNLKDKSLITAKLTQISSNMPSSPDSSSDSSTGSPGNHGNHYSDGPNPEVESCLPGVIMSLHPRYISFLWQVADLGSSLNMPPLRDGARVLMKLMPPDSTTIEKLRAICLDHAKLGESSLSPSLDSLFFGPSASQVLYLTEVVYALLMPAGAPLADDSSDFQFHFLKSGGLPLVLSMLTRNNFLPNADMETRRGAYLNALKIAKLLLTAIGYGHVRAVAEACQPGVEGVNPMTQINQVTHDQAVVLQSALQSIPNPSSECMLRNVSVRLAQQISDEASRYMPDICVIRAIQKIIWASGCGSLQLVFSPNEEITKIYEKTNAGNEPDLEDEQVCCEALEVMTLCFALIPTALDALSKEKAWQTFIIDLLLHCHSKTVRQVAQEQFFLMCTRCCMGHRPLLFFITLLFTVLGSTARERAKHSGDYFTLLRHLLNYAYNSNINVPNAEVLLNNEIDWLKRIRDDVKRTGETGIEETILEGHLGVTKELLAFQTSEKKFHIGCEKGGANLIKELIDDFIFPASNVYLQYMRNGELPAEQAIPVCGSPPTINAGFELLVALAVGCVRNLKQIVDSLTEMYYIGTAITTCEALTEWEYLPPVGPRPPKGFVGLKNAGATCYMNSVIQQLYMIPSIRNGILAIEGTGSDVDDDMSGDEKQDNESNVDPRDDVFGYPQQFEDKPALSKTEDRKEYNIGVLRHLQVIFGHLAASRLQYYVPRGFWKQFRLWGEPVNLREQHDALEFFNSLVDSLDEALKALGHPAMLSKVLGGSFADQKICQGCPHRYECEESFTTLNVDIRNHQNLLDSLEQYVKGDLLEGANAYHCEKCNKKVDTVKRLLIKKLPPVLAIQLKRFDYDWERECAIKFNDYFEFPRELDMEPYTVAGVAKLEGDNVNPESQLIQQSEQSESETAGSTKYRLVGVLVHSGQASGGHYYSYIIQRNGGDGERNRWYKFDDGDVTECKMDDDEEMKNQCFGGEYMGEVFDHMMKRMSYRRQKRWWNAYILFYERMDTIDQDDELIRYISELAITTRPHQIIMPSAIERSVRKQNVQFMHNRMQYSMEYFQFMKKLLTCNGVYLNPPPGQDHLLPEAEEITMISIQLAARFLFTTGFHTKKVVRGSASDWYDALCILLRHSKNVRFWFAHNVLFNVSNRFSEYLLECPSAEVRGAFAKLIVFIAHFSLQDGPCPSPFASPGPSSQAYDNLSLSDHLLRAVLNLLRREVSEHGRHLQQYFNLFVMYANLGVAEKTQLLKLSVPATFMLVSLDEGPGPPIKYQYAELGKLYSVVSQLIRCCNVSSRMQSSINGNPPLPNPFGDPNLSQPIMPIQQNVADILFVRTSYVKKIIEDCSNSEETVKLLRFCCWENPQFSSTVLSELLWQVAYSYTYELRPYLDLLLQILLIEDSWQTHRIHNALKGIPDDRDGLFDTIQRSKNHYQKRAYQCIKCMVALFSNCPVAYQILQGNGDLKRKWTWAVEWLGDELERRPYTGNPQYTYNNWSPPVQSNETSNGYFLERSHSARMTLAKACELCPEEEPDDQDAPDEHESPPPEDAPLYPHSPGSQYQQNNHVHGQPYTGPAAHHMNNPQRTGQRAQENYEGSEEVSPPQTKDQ
SMILES,Activity [1],Activity [2],Activity (MDA-MB-231),Activity (Jurkat),inhibition [3],inhibition [4]
CC(NC(=O)C1CCCC1)C(=O)Nc1nnc(Cc2ccc([N+](=O)[O-])cc2)s1 (racemic),< 50%,< 50%,–,–,–,–
CC(C)C[C@H](NC(=O)C1(C(F)(F)F)CCCCC1)C(=O)Nc1nnc(Cc2ccc(C#N)cc2)s1,–,–,inactive,inactive,inactive,inactive
